The source of these data is patent US20230338510A1, “NOVEL C[…] EPITOPE P[…] AND USE THEREOF” (SHANGHAI INSTITUTE OF MATERIA MEDICA, CHINESE ACADEMY OF …, priority 2020, published 2023).

One assay concerns RBD. The assay is classed as in vivo. The settings on record: cynomolgus monkeys, subcutaneous immunization with adjuvant, 14 days after the second immunization; FIG. 8.
A further assay concerns binding of RBD to ACE2. Description: competitive ELISA: ability of antiserum to block the binding of RBD and ACE2. In kind it is in vivo, cynomolgus monkeys.
A further assay deals with human ACE2 (Homo sapiens, UniProt Q9BYF1). Description: in vitro binding of biotin-labeled LP2 to ACE2 by ELISA. The settings on record: biotin-labeled polypeptide 1, 0.5 and 0.25 µg/mL, ACE2-coated plate; FIG. 10. As to the method: In this example, LP2 was labeled with biotin, and its binding ability with human ACE2 was detected by ELISA.
The specific determination method is as follows: the ELISA plate was coated overnight with 10ug/mL ACE2 and blocked, then biotin-labeled polypeptides of different concentrations (1, 0.5 and 0.25 µg/mL) were added. After incubated at 37° C. for 1.5 hours, HRP-Streptavidin A diluted in 1:5000 was added, and incubated at 37° C. for 1 hour. The plate was washed, then TMB was added for color development, and the plate was read at 450 nm wavelength after termination.
For orientation: In an ELISA, binding on a coated surface is turned into a signal by an enzyme label.

Chain of human ACE2 (Q9BYF1 18-805): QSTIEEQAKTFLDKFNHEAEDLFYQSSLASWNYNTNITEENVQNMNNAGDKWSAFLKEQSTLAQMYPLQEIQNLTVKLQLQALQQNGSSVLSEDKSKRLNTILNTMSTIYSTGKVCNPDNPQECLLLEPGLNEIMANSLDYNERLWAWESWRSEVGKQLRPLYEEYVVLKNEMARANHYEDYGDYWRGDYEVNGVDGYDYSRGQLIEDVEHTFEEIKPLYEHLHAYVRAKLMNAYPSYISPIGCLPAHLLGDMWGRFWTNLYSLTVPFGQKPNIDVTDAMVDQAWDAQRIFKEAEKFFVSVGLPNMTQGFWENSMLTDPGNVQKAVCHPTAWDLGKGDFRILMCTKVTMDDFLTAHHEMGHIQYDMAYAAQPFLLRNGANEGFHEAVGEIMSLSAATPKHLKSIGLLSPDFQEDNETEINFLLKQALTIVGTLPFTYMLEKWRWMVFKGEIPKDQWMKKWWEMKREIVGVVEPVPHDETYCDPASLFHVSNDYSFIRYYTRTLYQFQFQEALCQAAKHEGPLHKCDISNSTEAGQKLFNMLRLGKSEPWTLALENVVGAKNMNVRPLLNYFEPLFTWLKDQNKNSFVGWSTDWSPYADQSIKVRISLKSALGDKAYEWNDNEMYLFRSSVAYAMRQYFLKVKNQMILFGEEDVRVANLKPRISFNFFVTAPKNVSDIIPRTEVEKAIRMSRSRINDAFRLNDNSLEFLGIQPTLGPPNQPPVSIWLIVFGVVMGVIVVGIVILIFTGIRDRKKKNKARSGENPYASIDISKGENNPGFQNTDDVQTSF

As to “AKFVAAWTLKAAAGGGGYGFQPTNGVGYQPGGGGNYLYRLFRKSNLKPF [LP2]”, in the assay on RBD, the “titer of antibodies against RBD” value is listed as “higher titer of antibodies against RBD was produced”. In the assay with binding of RBD to ACE2 (antiserum at 8-64 times of dilution), the “blocking effect of antiserum on the binding of RBD to ACE2” value was “significant blocking effect”. Further, the inhibition rate result in the assay on binding of RBD to ACE2 (antiserum at 8 times of dilution) was “more than 60%”; in the assay on binding of RBD to ACE2 (antiserum at 16 times of dilution), “more than 40%”. For the same sequence, the “binding ability with ACE2” value with human ACE2 was “strong binding ability”.
